Test results as given in ChEMBL document CHEMBL5137086, “Discovery of 1-(Hetero)aryl-β-carboline Derivatives as IDO1/TDO Dual Inhibitors with Antidepressant Activity” (J Med Chem, 2022).
Calls of active or inactive are those of the source. The calls are words filed in the database; no cut-off is given here.

Key:
[1] = target: T1, Indoleamine 2,3-dioxygenase 1 (Homo sapiens, UniProt P14902); assay: Inhibition of IDO1 (unknown origin) assessed as reduction in kynurenine production using L-tryptophan as substrate at 50 uM incubated for 1 hr by absorbance based microplate reader analysis relative to control
Target sequence in this assay (P14902 whole entry, looked up): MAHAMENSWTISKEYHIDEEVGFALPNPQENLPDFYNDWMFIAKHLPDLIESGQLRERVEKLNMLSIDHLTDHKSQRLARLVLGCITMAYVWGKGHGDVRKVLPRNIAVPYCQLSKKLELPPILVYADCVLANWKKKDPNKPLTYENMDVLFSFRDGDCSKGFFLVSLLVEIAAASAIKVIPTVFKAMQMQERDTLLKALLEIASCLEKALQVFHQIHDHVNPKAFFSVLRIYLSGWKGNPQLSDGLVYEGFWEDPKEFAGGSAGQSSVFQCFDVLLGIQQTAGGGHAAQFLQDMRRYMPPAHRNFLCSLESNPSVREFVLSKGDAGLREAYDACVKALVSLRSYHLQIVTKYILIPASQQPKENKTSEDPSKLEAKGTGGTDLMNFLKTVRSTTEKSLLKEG

[2] = target: T1, Indoleamine 2,3-dioxygenase 1; assay: Inhibition of IDO1 (unknown origin) assessed as reduction in kynurenine production using L-tryptophan as substrate incubated for 1 hr by absorbance based microplate reader analysis
Target sequence in this assay (P14902 whole entry): as the sequence (P14902 whole entry, looked up) above

[3] = target: T2, Tryptophan 2,3-dioxygenase (Homo sapiens, UniProt P48775); assay: Inhibition of TDO (unknown origin) assessed as reduction in N-formylkynurenine formation using L-tryptophan as substrate at 50 uM incubated for 75 mins by UV absorbance based analysis relative to control
Target sequence in this assay (P48775 whole entry, looked up): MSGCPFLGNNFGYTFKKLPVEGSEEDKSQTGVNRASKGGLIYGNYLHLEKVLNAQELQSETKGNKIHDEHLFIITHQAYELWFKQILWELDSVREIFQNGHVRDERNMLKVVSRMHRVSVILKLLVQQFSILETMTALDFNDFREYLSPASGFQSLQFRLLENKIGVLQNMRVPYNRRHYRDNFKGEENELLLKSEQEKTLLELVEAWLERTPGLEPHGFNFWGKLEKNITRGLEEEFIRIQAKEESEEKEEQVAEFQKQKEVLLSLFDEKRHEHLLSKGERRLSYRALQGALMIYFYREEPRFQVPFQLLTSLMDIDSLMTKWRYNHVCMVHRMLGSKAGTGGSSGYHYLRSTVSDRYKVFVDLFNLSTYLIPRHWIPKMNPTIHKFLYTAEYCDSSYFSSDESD

[4] = target: T2, Tryptophan 2,3-dioxygenase; assay: Inhibition of TDO (unknown origin) assessed as reduction in N-formylkynurenine formation using L-tryptophan as substrate incubated for 75 mins by UV absorbance based analysis
Target sequence in this assay (P48775 whole entry): as the sequence (P48775 whole entry, looked up) above

BV-2 [5] = assay: Antiinflammatory activity in LPS stimulated mouse BV-2 cells assessed as decrease in IDO1 expression pretreated with compound for 1 hr followed by LPS stimulation and measured after 24 hrs; assay type: functional, cell-based; details: dose 0.25-2 µM, time 25.0 hrs, DDE = dose-dependent effect
BV-2 [6] = assay: Antiinflammatory activity in LPS stimulated mouse BV-2 cells assessed as reduction in TNF-alpha expression at 0.5 to 2 uM pretreated with compound for 1 hr followed by LPS stimulation and measured after 24 hrs by qRT-PCR analysis; assay type: functional, cell-based; details: dose 0.5-2 µM, time 25.0 hrs
BV-2 [7] = assay: Antiinflammatory activity in LPS stimulated mouse BV-2 cells assessed as increase in IL-10 expression at 0.5 to 2 uM pretreated with compound for 1 hr followed by LPS stimulation and measured after 24 hrs by qRT-PCR analysis; assay type: functional, cell-based; details: dose 0.5-2 µM, time 25.0 hrs
[8] = Half life in C57BL/6J mouse at 20 mg/kg, iv measured up to 24 hrs by LC-MS/MS analysis; assay type: ADME, organism-based; details: in vivo
[9] = Half life in C57BL/6J mouse at 20 mg/kg, ip measured up to 24 hrs by LC-MS/MS analysis; assay type: ADME, organism-based; details: in vivo
[10] = Tmax in C57BL/6J mouse at 20 mg/kg, iv measured up to 24 hrs by LC-MS/MS analysis; assay type: ADME, organism-based; details: in vivo
[11] = Cmax in C57BL/6J mouse at 20 mg/kg, iv measured up to 24 hrs by LC-MS/MS analysis; assay type: ADME, organism-based; design: time < 24 hrs, dose 20 mg/kg, route iv; details: in vivo
[12] = Cmax in C57BL/6J mouse at 20 mg/kg, ip measured up to 24 hrs by LC-MS/MS analysis; assay type: ADME, organism-based; design: dose 20 mg/kg, time < 24 hrs, route ip; details: in vivo
[13] = MRT (0 to 24 hrs) in C57BL/6J mouse at 20 mg/kg, ip measured up to 24 hrs by LC-MS/MS analysis; assay type: ADME, organism-based; details: in vivo
[14] = MRT (0 to infinity) in C57BL/6J mouse at 20 mg/kg, iv measured up to 24 hrs by LC-MS/MS analysis; assay type: ADME, organism-based; details: in vivo
[15] = MRT (0 to infinity) in C57BL/6J mouse at 20 mg/kg, ip measured up to 24 hrs by LC-MS/MS analysis; assay type: ADME, organism-based; details: in vivo
[16] = Bioavailability in C57BL/6J mouse at 20 mg/kg, […] measured up to 24 hrs by LC-MS/MS analysis; assay type: ADME, organism-based; details: in vivo
[17] = Acute toxicity in mouse assessed as pathological changes in liver at 10 to 20 mg/kg, ip administered once daily for 20 days by hematoxyin-eosin staining based analysis; assay type: organism-based; details: in vivo, 480 h, dose 10-20 mg/kg, time 20 day
[18] = Acute toxicity in mouse assessed as pathological changes in spleen at 10 to 20 mg/kg, ip administered once daily for 20 days by hematoxyin-eosin staining based analysis; assay type: organism-based; details: in vivo, 480 h, dose 10-20 mg/kg, time 20 day
[19] = Acute toxicity in mouse assessed as pathological changes in lung at 10 to 20 mg/kg, ip administered once daily for 20 days by hematoxyin-eosin staining based analysis; assay type: organism-based; details: in vivo, 480 h, dose 10-20 mg/kg, time 20 day
[20] = Acute toxicity in mouse assessed as pathological changes in kidney at 10 to 20 mg/kg, ip administered once daily for 20 days by hematoxyin-eosin staining based analysis; assay type: organism-based; details: in vivo, 480 h, dose 10-20 mg/kg, time 20 day
[21] = Acute toxicity in mouse assessed as change in body weight at 10 to 20 mg/kg, ip administered once daily and measured every day for 20 days; assay type: organism-based; details: in vivo, 480 h, dose 10-20 mg/kg, time 20 day
[22] = Acute toxicity in mouse assessed as pathological changes in liver at 30 mg/kg, ip administered once daily for 20 days by hematoxyin-eosin staining based analysis; assay type: organism-based; details: in vivo, 480 h, time 20 day
[23] = Acute toxicity in mouse assessed as reduction in body weight at 30 mg/kg, ip administered once daily and measured every day for 20 days; assay type: organism-based; details: in vivo, 480 h, time 20 day
Mus musculus [24] = assay: Antidepressant activity in LPS induced mouse model assessed as rescue of decrease in immobility time at 20 mg/kg, ip pretreated with compound administered once daily for 2 days followed by LPS injection by forced swim test; assay type: functional, organism-based; details: time 2.0 day
Mus musculus [25] = assay: Antidepressant activity in LPS induced mouse model assessed as suppression of microglia activation in hippocampus at 20 mg/kg, ip pretreated with compound administered once daily for 2 days followed by LPS injection; assay type: functional, organism-based; details: time 2.0 day
Mus musculus [26] = assay: Antiinflammatory activity in LPS induced mouse assessed as reduction in TNF-alpha expression in hippocampus at 20 mg/kg, ip pretreated with compound administered once daily for 2 days followed by LPS injection by qPCR analysis; assay type: functional, organism-based; details: time 2.0 day
Mus musculus [27] = assay: Antiinflammatory activity in LPS induced mouse assessed as reduction in IL-1beta expression in hippocampus at 20 mg/kg, ip pretreated with compound administered once daily for 2 days followed by LPS injection by qPCR analysis; assay type: functional, organism-based; details: time 2.0 day
Mus musculus [28] = assay: Antiinflammatory activity in LPS induced mouse assessed as reduction in iNOS expression in hippocampus at 20 mg/kg, ip pretreated with compound administered once daily for 2 days followed by LPS injection by qPCR analysis; assay type: functional, organism-based; details: time 2.0 day
Mus musculus [29] = assay: Antiinflammatory activity in LPS induced mouse assessed as rescue of increase in TNF-alpha expression in activated microglia at 20 mg/kg, ip pretreated with compound administered once daily for 2 days followed by LPS injection; assay type: functional, organism-based; details: time 2.0 day
Mus musculus [30] = assay: Downregulation of IDO1 expression in hippocampus of LPS induced mouse at 20 mg/kg, ip pretreated with compound administered once daily for 2 days followed by LPS injection by Western blotting analysis; assay type: functional, organism-based; details: time 2.0 day
Mus musculus [31] = assay: Antiinflammatory activity in LPS induced mouse assessed as rescue of increase in IDO1 expression in activated microglia at 20 mg/kg, ip pretreated with compound administered once daily for 2 days followed by LPS injection by immunofluorescence analysis; assay type: functional, organism-based; details: time 2.0 day
Mus musculus [32] = assay: Downregulation of kynurenine level in brain of LPS induced mouse at 20 mg/kg, ip pretreated with compound administered once daily for 2 days followed by LPS injection by UHPLC-HRMS analysis; assay type: functional, organism-based; details: time 2.0 day
Mus musculus [33] = assay: Downregulation of kynurenine level in serum of LPS induced mouse at 20 mg/kg, ip pretreated with compound administered once daily for 2 days followed by LPS injection by UHPLC-HRMS analysis; assay type: functional, organism-based; details: time 2.0 day
[34] = AUC (0 to infinity) in C57BL/6J mouse at 20 mg/kg, ip measured up to 24 hrs by LC-MS/MS analysis; assay type: ADME, organism-based; design: dose 20 mg/kg, time < 24 hrs, route ip; details: in vivo

c1ccc2c(c1)[nH]c1c(-c3c[nH]cn3)nccc12
inhibition [1]: 98%
IC50 [2]: 3530 nM
inhibition [3]: 92%
IC50 [4]: 1150 nM
Activity (BV-2 [5]): Dde
Activity (BV-2 [6]): Active
Activity (BV-2 [7]): Active
half-life [8]: 2.31 h
half-life [9]: 0.77 h
Tmax [10]: 0.25 h
Cmax [11]: 5540 ng/mL
Cmax [12]: 3880 ng/mL
MRT last at 24 h [13]: 1.03 h
MRT inf [14]: 1.85 h
MRT inf [15]: 1.04 h
bioavailability [16]: 52.5%
Activity [17]: Non-Toxic
Activity [18]: Non-Toxic
Activity [19]: Non-Toxic
Activity [20]: Non-Toxic
Activity [21]: Non-Toxic
Activity [22]: Toxic
Activity [23]: Toxic
Activity (Mus musculus [24]): Active
Activity (Mus musculus [25]): Active
Activity (Mus musculus [26]): Active
Activity (Mus musculus [27]): Active
Activity (Mus musculus [28]): Active
Activity (Mus musculus [29]): Active
Activity (Mus musculus [30]): Active
Activity (Mus musculus [31]): Active
Activity (Mus musculus [32]): Active
Activity (Mus musculus [33]): Active
AUC(0-inf) [34]: 4460 ng·h/mL
